pIC50: −log10 of the molar value.

The assay concerns the target T1, progesterone receptor (PR) (Homo sapiens, UniProt P06401).
T1 sequence (P06401 1-933): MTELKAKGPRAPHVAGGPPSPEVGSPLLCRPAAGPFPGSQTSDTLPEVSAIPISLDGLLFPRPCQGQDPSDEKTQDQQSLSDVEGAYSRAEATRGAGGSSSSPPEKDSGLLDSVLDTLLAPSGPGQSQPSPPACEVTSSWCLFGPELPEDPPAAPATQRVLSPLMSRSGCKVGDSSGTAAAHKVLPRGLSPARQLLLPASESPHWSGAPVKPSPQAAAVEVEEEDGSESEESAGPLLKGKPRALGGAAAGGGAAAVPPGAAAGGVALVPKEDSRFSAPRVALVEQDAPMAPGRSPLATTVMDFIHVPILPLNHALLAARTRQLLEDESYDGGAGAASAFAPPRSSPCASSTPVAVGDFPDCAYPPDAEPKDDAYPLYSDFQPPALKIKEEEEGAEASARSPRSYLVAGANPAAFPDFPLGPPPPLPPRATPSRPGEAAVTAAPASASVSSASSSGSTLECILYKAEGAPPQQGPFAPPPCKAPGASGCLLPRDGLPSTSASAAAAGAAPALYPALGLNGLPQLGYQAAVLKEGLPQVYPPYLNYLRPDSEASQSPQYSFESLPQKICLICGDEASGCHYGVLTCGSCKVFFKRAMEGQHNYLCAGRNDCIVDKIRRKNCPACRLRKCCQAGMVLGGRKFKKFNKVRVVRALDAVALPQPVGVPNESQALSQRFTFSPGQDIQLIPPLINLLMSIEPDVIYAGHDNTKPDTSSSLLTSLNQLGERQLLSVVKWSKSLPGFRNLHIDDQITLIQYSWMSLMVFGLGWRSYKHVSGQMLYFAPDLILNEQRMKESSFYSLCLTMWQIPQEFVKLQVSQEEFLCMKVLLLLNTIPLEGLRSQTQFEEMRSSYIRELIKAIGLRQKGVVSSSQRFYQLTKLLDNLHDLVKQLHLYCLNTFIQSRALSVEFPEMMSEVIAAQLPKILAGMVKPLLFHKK
Put plainly: Radioligand binding assay with progesterone receptor cytosol (similar protocol). From the text:
Methods for Radioligand Binding Studies with Human Glucocorticoid and Progesterone Receptor Cytosol
A similar protocol was employed to measure affinity of the compounds of the present invention for progesterone receptor (PR).
For the compound `COc1cccc2c1-c1ccc(NS(C)(=O)=O)cc1C(c1cccc(C#Cc3ccccc3)c1)O2` (stereo not shown) [Example 91, N-{1-methoxy-6-[3-(phenylethynyl)phenyl]-6H-benzo[c]chromen-8-yl}methanesulfonamide], the pIC50 (in general, the IC50 on a negative log10 scale, so that one unit is a factor of ten) is less than 6.00.

`COc1cccc2c1-c1ccc(NS(C)(=O)=O)cc1C(c1ccc(C#CCCCO)s1)O2` (stereo not shown) [Example 102, N-{6-[5-(5-hydroxy-1-pentynyl)-2-thienyl]-1-methoxy-6H-benzo[c]chromen-8-yl}methanesulfonamide] gave a pIC50 of less than 6.00.

`COc1cccc2c1-c1ccc(NS(C)(=O)=O)cc1C(c1cccc(-c3ccc(O)cc3)c1)O2` (stereo not shown) [Example 128, N-[6-(4′-hydroxy[1,1′-biphenyl]-3-yl)-1-methoxy-6H-benzo[c]chromen-8-yl]methanesulfonamide] gave a pIC50 of 6.06.

As to `CCCCC/C=C/C1Oc2cccc(OC)c2-c2ccc(NS(C)(=O)=O)cc21` (stereo not shown) [Example 98, N-{6-[(1E)-1-heptenyl]-1-methoxy-6H-benzo[c]chromen-8-yl}methanesulfonamide], the pIC50 is 7.04.

The compound `COc1cccc2c1-c1ccc(CS(N)(=O)=O)cc1C(c1cccc(Cl)c1)O2` (stereo not shown) [Example 60, (1-methoxy-6-(3-chlorophenyl)-6H-dibenzo(b,d)pyran-8-yl)methanesulfonamide] gave a pIC50 of 6.30.

Compound `COc1cccc(C2Oc3cccc(OC(F)F)c3-c3ccc(NS(C)(=O)=O)cc32)c1` (stereo not shown) [Example 108, N-[1-(difluoromethoxy)-6-(3-methoxyphenyl)-6H-benzo[c]chromen-8-yl]methanesulfonamide] showed a pIC50 of 6.77. This pIC50 is 0.47 log units higher than that of the compound before.

For `CCOC(=O)c1cccc(C2Oc3cccc(OC(F)F)c3-c3ccc(NS(C)(=O)=O)cc32)c1` (stereo not shown) [Example 114, ethyl 3-{1-(difluoromethoxy)-8-[(methylsulfonyl)amino]-6H-benzo[c]chromen-6-yl}benzoate], the pIC50 was 6.54.

Compound `COc1cccc2c1-c1ccc(NS(C)(=O)=O)cc1C(c1ccsc1)O2` (stereo not shown) [Example 97, N-[1-methoxy-6-(3-thienyl)-6H-benzo[c]chromen-8-yl]methanesulfonamide] gave a pIC50 of 6.74.

For the compound `COc1cccc2c1-c1ccc(NS(C)(=O)=O)cc1C(c1cccc(N(C)S(C)(=O)=O)c1)O2` (stereo not shown) [Example 83, N-(1-methoxy-6-{3-[methyl(methylsulfonyl)amino]phenyl}-6H-benzo[c]chromen-8-yl)methanesulfonamide], the pIC50 was 5.44.

Consider `COc1cccc2c1-c1ccc(NS(C)(=O)=O)cc1C(c1cc(C)cc(C)c1)O2` (stereo not shown) [Example 87, N-[6-(3,5-dimethylphenyl)-1-methoxy-6H-benzo[c]chromen-8-yl]methanesulfonamide], for which the pIC50 was 6.68. This pIC50 is 1.24 log units higher than that of the compound before.

With `CCOC(=O)CCc1cccc(C2Oc3cccc(OC(F)F)c3-c3ccc(NS(C)(=O)=O)cc32)c1` (stereo not shown) [Example 118, ethyl 3-(3-{1-(difluoromethoxy)-8-[(methylsulfonyl)amino]-6H-benzo[c]chromen-6-yl}phenyl)propanoate], the pIC50 is 6.21.

Turning to `CS(=O)(=O)Nc1ccc2c(c1)C(c1cccc(-c3ccc(Cl)cc3)c1)Oc1cccc(OC(F)F)c1-2` (stereo not shown) [Example 143, N-[6-(4′-chloro[1,1′-biphenyl]-3-yl)-1-(difluoromethoxy)-6H-benzo[c]chromen-8-yl]methanesulfonamide], the pIC50 is 6.66.

Compound `CS(=O)(=O)Nc1ccc2c(c1)C(c1cccc(-c3ccccc3Cl)c1)Oc1cccc(OC(F)F)c1-2` (stereo not shown) [Example 146, N-[6-(2′-chloro[1,1′-biphenyl]-3-yl)-1-(difluoromethoxy)-6H-benzo[c]chromen-8-yl]methanesulfonamide] showed a pIC50 of 6.59.

`COc1cccc2c1-c1ccc(NS(C)(=O)=O)cc1C(c1cccc(-c3ccc(Cl)c(Cl)c3)c1)O2` (stereo not shown) [Example 127, N-[6-(3′,4′-dichloro[1,1′-biphenyl]-3-yl)-1-methoxy-6H-benzo[c]chromen-8-yl]methanesulfonamide] showed a pIC50 of less than 5.00.

As for `CCCS(=O)(=O)N(C)c1cccc(C2Oc3cccc(OC)c3-c3ccc(NS(C)(=O)=O)cc32)c1` (stereo not shown) [Example 132, N-(3-{1-methoxy-8-[(methylsulfonyl)amino]-6H-benzo[c]chromen-6-yl}phenyl)-N-methyl-1-propanesulfonamide], the pIC50 was less than 5.00.

As for “(1-ethoxy-6-phenyl-6H-dibenzo(b,d)pyran-8-yl)methanesulfonamide [Example 44]”, the pIC50 was 5.16.

With `COCCCc1cccc(C2Oc3cccc(OC(F)F)c3-c3ccc(NS(C)(=O)=O)cc32)c1` (stereo not shown) [Example 117, N-{1-(difluoromethoxy)-6-[3-(3-methoxypropyl)phenyl]-6H-benzo[c]chromen-8-yl}methanesulfonamide], the pIC50 was 6.37. Against the preceding compound, the pIC50 is 1.21 log units higher.

On to `C=Cc1c(NS(C)(=O)=O)ccc2c1C(c1cccc(C(F)(F)F)c1)Oc1cccc(OC)c1-2` (stereo not shown) [Example 3, (1-methoxy-6-(3-trifluoromethyl)phenyl-7-vinyl-6H-dibenzo(b,d)pyran-8-yl)methanesulfonamide], for which the pIC50 was less than 5.00.

Compound `COCC#Cc1ccc(C2Oc3cccc(OC)c3-c3ccc(NS(C)(=O)=O)cc32)s1` (stereo not shown) [Example 92, N-{1-methoxy-6-[5-(3-methoxy-1-propynyl)-2-thienyl]-6H-benzo[c]chromen-8-yl}methanesulfonamide] had a pIC50 of 7.29.

Compound `CCOCCCc1cccc(C2Oc3cccc(OC(F)F)c3-c3ccc(NS(C)(=O)=O)cc32)c1` (stereo not shown) [Example 120, N-{1-(difluoromethoxy)-6-[3-(3-ethoxypropyl)phenyl]-6H-benzo[c]chromen-8-yl}methanesulfonamide] had a pIC50 of 6.30.

In turn, `CCS(=O)(=O)N(C)c1cccc(C2Oc3cccc(OC)c3-c3ccc(NS(C)(=O)=O)cc32)c1` (stereo not shown) [Example 131, N-(3-{1-methoxy-8-[(methylsulfonyl)amino]-6H-benzo[c]chromen-6-yl}phenyl)-N-methylethanesulfonamide] showed a pIC50 of less than 5.00.

Compound `COc1cccc2c1-c1ccc(NS(C)(=O)=O)cc1C(c1cccc(N(C)S(=O)(=O)CCCCl)c1)O2` (stereo not shown) [Example 130, 3-chloro-N-(3-{1-methoxy-8-[(methylsulfonyl)amino]-6H-benzo[c]chromen-6-yl}phenyl)-N-methyl-1-propanesulfonamide] had a pIC50 of less than 5.00.

`COc1cccc2c1-c1ccc(NS(C)(=O)=O)cc1C(c1cccc(-c3ccc(C)cc3)c1)O2` (stereo not shown) [Example 123, N-[1-methoxy-6-(4′-methyl[1,1′-biphenyl]-3-yl)-6H-benzo[c]chromen-8-yl]methanesulfonamide] had a pIC50 of less than 5.00.

`Nc1ccc2c(c1Br)C(c1ccccc1)Oc1cccc(OC(F)F)c1-2` (stereo not shown) [Example 4, 8-Amino-7-bromo-1-difluoromethoxy-6-phenyl-6H-dibenzo[b,d]pyran] had a pIC50 of 6.34.

`CS(=O)(=O)Nc1ccc2c(c1)C(c1cccc(F)c1)Oc1cccc(OC(F)F)c1-2` (stereo not shown) [Example 107, N-[1-(difluoromethoxy)-6-(3-fluorophenyl)-6H-benzo[c]chromen-8-yl]methanesulfonamide] showed a pIC50 of 7.22.

In the case of `COc1cccc2c1-c1ccc(NS(C)(=O)=O)cc1C(c1ccc(C#Cc3ccccc3)s1)O2` (stereo not shown) [Example 93, N-{1-methoxy-6-[5-(phenylethynyl)-2-thienyl]-6H-benzo[c]chromen-8-yl}methanesulfonamide], the pIC50 is less than 6.00.

In turn, `COc1cccc2c1-c1ccc(NS(C)(=O)=O)cc1C(c1cccc(N(C)S(=O)(=O)c3ccc(Br)cc3)c1)O2` (stereo not shown) [Example 152, 4-bromo-N-(3-{1-methoxy-8-[(methylsulfonyl)amino]-6H-benzo[c]chromen-6-yl}phenyl)-N-methylbenzenesulfonamide] showed a pIC50 not above 5.00.

In turn, `CS(=O)(=O)Nc1ccc2c(c1)C(c1cccc(CCCCc3ccccc3)c1)Oc1cccc(OC(F)F)c1-2` (stereo not shown) [Example 136, N-{1-(difluoromethoxy)-6-[3-(4-phenylbutyl)phenyl]-6H-benzo[c]chromen-8-yl}methanesulfonamide] gave a pIC50 of less than 5.00.

Take `CS(=O)(=O)Nc1ccc2c(c1)C(c1cccc(-c3ccc(F)cc3)c1)Oc1cccc(OC(F)F)c1-2` (stereo not shown) [Example 144, N-[1-(difluoromethoxy)-6-(4′-fluoro[1,1′-biphenyl]-3-yl)-6H-benzo[c]chromen-8-yl]methanesulfonamide]: the pIC50 was 6.85.

For `COc1cccc2c1-c1ccc(NS(C)(=O)=O)cc1C(c1ccccc1)O2` (stereo not shown) [Example 5, N-(1-methoxy-6-phenyl-6H-dibenzo[b,d]pyran-8-yl)methanesulfonamide], the pIC50 was 5.47.

As for `O=S(=O)(Nc1ccc2c(c1)C(c1ccccc1)Oc1cccc(OC(F)F)c1-2)c1cccs1` (stereo not shown) [Example 26, N-(1-difluoromethoxy-6-phenyl-6H-dibenzo[b,d]pyran-8-yl)-thiophene-2-sulfonamide], the pIC50 was 7.54.
